Results reported in the NIST ThermoML archive (doi:10.1016/j.jct.2011.02.018).

Assay: xn = mol fraction of the nth substance listed
Conditions: 101 kPa, Liquid, Vibrating tube method

COC(C)(C)C [2-methoxy-2-methylpropane] + CO
mass density [kg/m3]
Conditions | 293.15 K | 298.15 K | 303.15 K | 308.15 K
x1 = 0.01 | 790.62 | 785.93 | 781.19 | 776.42
x1 = 0.0201 | 789.69 | 785 | 780.24 | 775.46
x1 = 0.0301 | 788.74 | 784.01 | 779.26 | 774.46
x1 = 0.0402 | 787.83 | 783.09 | 778.32 | 773.51
x1 = 0.0502 | 786.96 | 782.24 | 777.44 | 772.61
x1 = 0.0601 | 786.1 | 781.36 | 776.57 | 771.73
x1 = 0.0696 | 785.32 | 780.58 | 775.75 | 770.9
x1 = 0.0799 | 784.47 | 779.71 | 774.88 | 770.02
x1 = 0.0888 | 783.72 | 778.95 | 774.12 | 769.25
x1 = 0.1008 | 782.79 | 778 | 773.16 | 768.27
x1 = 0.1498 | 779.11 | 774.25 | 769.36 | 764.43
x1 = 0.1945 | 776.01 | 771.13 | 766.21 | 761.24
x1 = 0.26 | 771.99 | 767.08 | 762.1 | 757.08
x1 = 0.3006 | 769.58 | 764.65 | 759.64 | 754.59
x1 = 0.3482 | 766.92 | 761.97 | 756.93 | 751.87
x1 = 0.3841 | 765.07 | 760.07 | 755.01 | 749.92
x1 = 0.4527 | 761.67 | 756.67 | 751.59 | 746.45
x1 = 0.5004 | 759.46 | 754.42 | 749.29 | 744.12
x1 = 0.5458 | 757.52 | 752.46 | 747.32 | 742.12
x1 = 0.6009 | 755.29 | 750.18 | 745.03 | 739.81
x1 = 0.6459 | 753.48 | 748.37 | 743.18 | 737.93
x1 = 0.7014 | 751.36 | 746.23 | 741.01 | 735.74
x1 = 0.7449 | 749.75 | 744.6 | 739.36 | 734.07
x1 = 0.7986 | 747.76 | 742.58 | 737.33 | 732.01
x1 = 0.8504 | 745.92 | 740.74 | 735.47 | 730.13
x1 = 0.8978 | 744.27 | 739.05 | 733.78 | 728.43
x1 = 0.9091 | 743.88 | 738.66 | 733.39 | 728.04
x1 = 0.9184 | 743.53 | 738.33 | 733.04 | 727.69
x1 = 0.9259 | 743.26 | 738.07 | 732.78 | 727.43
x1 = 0.9379 | 742.81 | 737.6 | 732.32 | 726.97
x1 = 0.9473 | 742.48 | 737.28 | 732 | 726.65
x1 = 0.9598 | 742.06 | 736.83 | 731.56 | 726.21
x1 = 0.9706 | 741.68 | 736.46 | 731.17 | 725.82
x1 = 0.9791 | 741.36 | 736.13 | 730.85 | 725.49
x1 = 0.9881 | 741.04 | 735.82 | 730.53 | 725.18
